# Reference: US20060121441A1, “Methods of determining the effect of an agent on diploid cells and/or on the pattern of expression of polypeptides expressed therewith” (priority 2002, published 2006)
# What was measured:
# Assay type in all cases: cell-based, Aplysia californica
# EB3 association with MTs = assay: Confocal imaging of EGFP-EB3 and microtubules in cultured neurons; details: EGFP-EB3-expressing neurons
# Description: (§1) Cell culture—Neurons B1 and B2 from buccal ganglia, MCn neurons from the metacerebral ganglion, sensory neurons from the pleuropeadal ganglion and LUQs from the abdominal ganglion of Aplysia californica were isolated and maintained in culture as previously described [Schacher and Proshansky, (1983); Spira et al., (1993, 1996)].
# Expression constructs—Enzymes were obtained from (New England Biolabs, Beverly, Mass., USA). Each of the chimeric cDNAs of EGFP-EB3, EGFP-p50 and EGFP-MLIV was subcloned into the pCS2+ expression vector as described below [Rupp (1994); Turner and Weintraub (1994)]. For EGFP-EB the pCS2+ vector was cut with XhoI and SnaB. The insert (EGFP-EB3) was cut with NotI, fill in and cut with SalI. For EGFP-P50 the pCS2+ vector was cut with XbaI and the insert was cut with NheI and SpeI.
# In-vitro transcription—5′-capped and 3′-polyadenylated mRNA was in vitro transcribed using recombinant in vitro transcription system (Promega, Madison, Wis., USA,). 10 μg of NotI-linearized pCS2+ was used as a template to transcribe capped mRNA. The transcription reaction was effected with RiboMax-sp6 kit (Promrga-P1280). Briefly, a reaction mixture was prepared by mixing 8 μl Transcription ×5 Buffer, 8 μl rNTPs mix containing 25 mM CTP, ATP, UTP and 12 mM GTP, 4 μl of 15 mM Cap analog (Roche 85846029), 1 μl of 40 units rRnasin (Promega N251A), 4 μl enzyme mix and 1-2 μg linear plasmid. Final reaction volume was compensated to 40 μl. […]
# Mag-fura-2 Ca^2+ imaging—To study the local effect of elevated calcium levels on the distribution of a given fluorescentlly labled protein ratio imaging of the free intracellular calcium concentration was effected by mag fura-2. […] The fluorescence microscopy system consisted of a Zeiss Axiovert microscope equipped with a 75 W Xenon arc lamp, a Zeiss 40×0.75 NA Plan-Neofluar objective, 340±5 nm and 380±5 nm bandpass excitation filters set in a computer-controlled, Lambda10 position filter changer (Sutter, Novato Calif.), a dichroic mirror with a cut-off threshold of 505 nm and a 545±25 nm band pass emission filter. […]
# [1] = system: actin bundles at the leading edge of growth cones; assay: Confocal imaging of EGFP-actin bundles in growth cones of cultured neurons injected with mRNA encoding EGFP-actin
# Description: as §1
# EGFP cDNA was amplified from pEGFP-N1 vector (Clontech, Palo-Alto, Calif., USA) by polymerase chain reaction (PCR) with two specific primers: 5′-GGCCATGGTGAGCAAGG-3′ and 5′-CTTGTACAGCTCGTCCATG-3′(Genset Oligos) (SEQ ID NOs: 1 and 2, respectively). The PCR product was digested with HindII and SmaI and subcloned into corresponding sites of Bluescript II SK (Stratagen, La Jolla, Calif.). Aplysia actin provided by Dr DesGrosiller (Montreal University, Canada) was amplified by PCR from Bluescript containing the actin cDNA using two specific primers: 5′-ATGTGTGACGACGATGTT-3′ and 5′-TTAGAAGCACTTGCGGTCG-3′ (SEQ ID NOs: 3 and 4, respectively) with SmaI and XbaI restriction sites at their 5′ ends. Following digestion, the PCR product was subcloned in-frame with EGFP into the previously prepared pBluescript-EGFP vector linearized with SmaI and XbaI. The EGFP-Actin fragment was then cut out from pBluescript with ClaI and XbaI and subcloned into corresponding sites of pCS2+ vector [Rupp (1994); Turner and Weintraub (1994) supra]. […]
# microtubules = assay: Confocal imaging of EGFP-tubulin labelled microtubules in axotomy-induced growth cone of cultured neurons
# Description: mRNA microinjection—mRNA was injected into the cytoplasm of Aplysia neurons bathed in ASW 8-48 hours following plating. 0.5-5 μg/μl mRNA in 80 mM KCl was used for injection. Injection was performed by pressure using Medical System Corp microinjector inserted into the cell body under visual control. Approximately up to 10% of the cell's body volume was injected. […] Good penetration was indicated by a resting potential of >−35 mV and measuring a typical input resistance. At the end of the injection, the micropipette tip was pooled out gently of the neuron. Cells were imaged for protein expression 12-48 hours following injection.
# Axotomy—Axonal transection was performed by applying pressure on the axon with the thin shaft of a micropipette under visual control, as previously described [Spira et al., 1993, 1996; Ziv and Spira, (1993)].
smiles,measurement,setting,value
CCCC[C@@H](C=O)NC(=O)[C@H](CC(C)C)NC(=O)OCc1ccccc1 [calpeptin],effect on MTs and EB3 association with MTs,EB3 association with MTs,induces milled dissociation of EB3 from the MTs
C=C1[C@@H](C)[C@H]2[C@H](Cc3ccccc3)NC(=O)[C@]23OC(=O)/C=C/[C@H](O)CCC[C@@H](C)C/C=C/[C@H]3[C@@H]1O [cytochalasin B],effect on EGFP labeled actin bundles at the leading edge of growth cones,"[1]; cultured B1 neuron, nine minutes following bath application of 2 mM",actin bundles disassembly and the formation of small actin aggregates within the collapsed growth cones and the axoplasm
same,depolymerisation of fluorescent actin bundles after application,"[1]; growth cone formed after axotomy, FIGS. 3a-b",depolymerised within minutes
C[C@H](CCC(=O)O)C[C@H](C)C[C@H](C)C(=O)/C=C(\O)[C@H](C)C[C@H](C)C/C=C/[C@@H](C)[C@@H](O)[C@@H](C)[C@@H](O)C[C@@H]1CC[C@@](C)([C@H]2CC[C@@](C)([C@@H](C)O)O2)O1 [ionomycin],mimicry of the axotomy-induced MT depolymerization/repolymerization and vesicle trap process by local elevation of [Ca2+]i,EB3 association with MTs; local application,able to mimic the process
COC(=O)Nc1nc2ccc(C(=O)c3cccs3)cc2[nH]1 [nocodazole],effect on EGFP-tubulin microtubules in growth cone lamellipodium,microtubules; bath application 5 mM for 5 min,depolymerisation of most microtubules
same,effect on EGFP labelled microtubules within growth cone,"microtubules; cultured B1 neuron, twenty three minutes following bath application of 5 mM",microtubules depolymerise
same,effect on MTs and EB3 association with MTs,EB3 association with MTs,induces MTs deplymerization and dissociation of EB3 from the MTs
